Reference: PubChem BioAssay AID256 (DTP/NCI, 2004)
Values joined by “and” are separate entries in the source; they are usually repeats but may differ in a detail not shown here. Identical values can stand only once. Inconclusive results and toxic doses are left out. How the source made its calls: active means survival T/C of 150% or more; inactive means T/C below 125% in these data.

Test system: CD2F1 mice, L1210 leukemia ip, survival T/C
Assay: NCI In Vivo Anticancer Drug Screen. Data for tumor model L1210 Leukemia (intraperitoneal) in CD2F1 (CDF1) mice
Settings: higher = longer survival
How it was run: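 Activity against a transplanted murine tumor was judged by comparing the compound group with a vehicle group. The outcome in the treated animals was divided by that in the controls.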

[1] = endpoint: mean survival time, dose: 50.0 mg/kg/injection, schedule: Q01DX009 (ip), vehicle: saline
[2] = endpoint: mean survival time, dose: 100.0 mg/kg/injection, schedule: Q01DX009 (ip), vehicle: saline
[3] = endpoint: mean survival time, dose: 100.0 mg/kg/injection, schedule: Q04DX003 (ip), vehicle: saline
[4] = endpoint: mean survival time, dose: 200.0 mg/kg/injection, schedule: Q01DX009 (ip), vehicle: saline
[5] = endpoint: mean survival time, dose: 200.0 mg/kg/injection, schedule: Q04DX003 (ip), vehicle: saline
[6] = endpoint: mean survival time, dose: 100.0 mg/kg/injection, schedule: Q04DX003 (ip), vehicle: saline with Tween-80
[7] = endpoint: mean survival time, dose: 200.0 mg/kg/injection, schedule: Q04DX003 (ip), vehicle: saline with Tween-80
[8] = endpoint: mean survival time, dose: 400.0 mg/kg/injection, schedule: Q04DX003 (ip), vehicle: saline with Tween-80
[9] = endpoint: mean survival time, dose: 400.0 mg/kg/injection, schedule: Q04DX003 (ip), vehicle: saline
[10] = endpoint: mean survival time, dose: 12.5 mg/kg/injection, schedule: Q01DX009 (ip), vehicle: saline with Tween-80
[11] = endpoint: mean survival time, dose: 25.0 mg/kg/injection, schedule: Q01DX009 (ip), vehicle: saline with Tween-80
[12] = endpoint: mean survival time, dose: 50.0 mg/kg/injection, schedule: Q01DX009 (ip), vehicle: saline with Tween-80
[13] = endpoint: mean survival time, dose: 100.0 mg/kg/injection, schedule: Q01DX009 (ip), vehicle: saline with Tween-80
[14] = endpoint: mean survival time, dose: 400.0 mg/kg/injection, schedule: Q01DX009 (ip), vehicle: saline with Tween-80
[15] = endpoint: mean survival time, dose: 25.0 mg/kg/injection, schedule: Q04DX003 (ip), vehicle: saline with Tween-80
[16] = endpoint: mean survival time, dose: 50.0 mg/kg/injection, schedule: Q04DX003 (ip), vehicle: saline with Tween-80
[17] = endpoint: mean survival time, dose: 100.0 mg/kg/injection, schedule: Q04DX002 (ip), vehicle: saline with Tween-80
[18] = endpoint: mean survival time, dose: 200.0 mg/kg/injection, schedule: Q01DX009 (ip), vehicle: saline with Tween-80
[19] = endpoint: mean survival time, dose: 100.0 mg/kg/injection, schedule: Q01DX001 (ip), vehicle: saline with Tween-80

Measured: T/C

OC1(c2ccccc2)CN(Cc2ccccc2)CCO1 (stereo not drawn)
inactive: [1] 104 % of control | endpoint: mean survival time, dose: 50.0 mg/kg/injection, schedule: Q04DX003 (ip), vehicle: saline 93 % of control | [2] 102 % of control | [3] 101 % of control | [4] 98 % of control | [5] 102 % of control

CC(C)(C)OC(=O)NC(CSSCC(NC(=O)OC(C)(C)C)C(=O)O)C(=O)O (stereo not drawn)
inactive: [6] 92 % of control | [7] 92 % of control | [8] 90 % of control

CCCCCC1C(O)C(=O)OC1(C(F)(F)F)C(F)(F)F (stereo not drawn)
inactive: endpoint: mean survival time, dose: 100.0 mg/kg/injection, schedule: Q04DX003 (ip), vehicle: Klucel (hydroxypropylcellulose) (HPC) 91 % of control | endpoint: mean survival time, dose: 200.0 mg/kg/injection, schedule: Q04DX003 (ip), vehicle: Klucel (hydroxypropylcellulose) (HPC) 94 % of control | endpoint: mean survival time, dose: 400.0 mg/kg/injection, schedule: Q04DX003 (ip), vehicle: Klucel (hydroxypropylcellulose) (HPC) 96 % of control

Cc1nc(N)[nH]c(=O)c1CCCN
inactive: [3] 95 % of control | [5] 98 % of control | [9] 95 % of control

Cn1c(=O)c2[nH]c(-c3cccnc3)nc2n(C)c1=O
inactive: endpoint: mean survival time, dose: 12.5 mg/kg/injection, schedule: Q01DX005 (ip), vehicle: distilled water + Tween-80 92 % of control | endpoint: mean survival time, dose: 25.0 mg/kg/injection, schedule: Q01DX005 (ip), vehicle: distilled water + Tween-80 98 % of control | endpoint: mean survival time, dose: 50.0 mg/kg/injection, schedule: Q01DX005 (ip), vehicle: distilled water + Tween-80 98 % of control | endpoint: mean survival time, dose: 100.0 mg/kg/injection, schedule: Q01DX005 (ip), vehicle: distilled water + Tween-80 98 % of control | endpoint: mean survival time, dose: 200.0 mg/kg/injection, schedule: Q01DX005 (ip), vehicle: distilled water + Tween-80 116 % of control

Cc1ccc(C(=O)C=C(C(F)(F)F)C(F)(F)F)cc1
inactive: endpoint: mean survival time, dose: 6.25 mg/kg/injection, schedule: Q01DX009 (ip), vehicle: saline with Tween-80 102 % of control | [10] 98 % of control | [11] 98 % of control

CCCCS(=O)(=O)OCCCCOS(=O)(=O)CCCC
inactive: [3] 96 % of control | [5] 95 % of control | [9] 101 % of control

[C-]#[O+].[C-]#[O+].[C-]#[O+].[C-]#[O+].[C-]#[O+].[C-]#[O+].[Cr]
inactive: [11] 103 % of control | [12] 97 % of control and 110 % of control | [13] 112 % of control

CCOC(=O)C1(C#N)C(=O)CSC1=Nc1ccccc1Cl (stereo not drawn)
inactive: [11] 90 % of control | [12] 91 % of control | [13] 86 % of control | [14] 86 % of control

COC1C(O)CC(=O)OC(C)C/C=C/C=C/C(OC2CCC(N(C)C)C(C)O2)C(C)CC(CC=O)C1OC1OC(C)C(OC2CC(C)(O)C(O)C(C)O2)C(N(C)C)C1O (stereo not drawn)
inactive: endpoint: mean survival time, dose: 6.3 mg/kg/injection, schedule: Q03HX024 (ip), vehicle: saline 100 % of control | endpoint: mean survival time, dose: 12.5 mg/kg/injection, schedule: Q03HX008 (ip), vehicle: saline 100 % of control | endpoint: mean survival time, dose: 12.5 mg/kg/injection, schedule: Q03HX024 (ip), vehicle: saline 100 % of control | endpoint: mean survival time, dose: 25.0 mg/kg/injection, schedule: Q03HX008 (ip), vehicle: saline 97 % of control | endpoint: mean survival time, dose: 25.0 mg/kg/injection, schedule: Q03HX024 (ip), vehicle: saline 101 % of control | [1] 98 % of control | endpoint: mean survival time, dose: 50.0 mg/kg/injection, schedule: Q03HX008 (ip), vehicle: saline 100 % of control | endpoint: mean survival time, dose: 50.0 mg/kg/injection, schedule: Q03HX024 (ip), vehicle: saline 103 % of control | endpoint: mean survival time, dose: 100.0 mg/kg/injection, schedule: Q01DX001 (ip), vehicle: saline 102 % of control | [2] 96 % of control | endpoint: mean survival time, dose: 100.0 mg/kg/injection, schedule: Q03HX008 (ip), vehicle: saline 97 % of control | [3] 98 % of control | endpoint: mean survival time, dose: 200.0 mg/kg/injection, schedule: Q01DX001 (ip), vehicle: saline 98 % of control | [4] 102 % of control | [5] 100 % of control | endpoint: mean survival time, dose: 400.0 mg/kg/injection, schedule: Q01DX001 (ip), vehicle: saline 106 % of control | endpoint: mean survival time, dose: 400.0 mg/kg/injection, schedule: Q01DX009 (ip), vehicle: saline 98 % of control | [9] 100 % of control

O=C(O)c1cc(F)c(F)c(F)c1F
inactive: [10] 91 % of control | [11] 97 % of control | [15] 96 % of control | [12] 103 % of control | [16] 94 % of control

CCOP(=O)(CC(=O)O)c1ccccc1 (stereo not drawn)
inactive: endpoint: mean survival time, dose: 25.0 mg/kg/injection, schedule: Q04DX002 (ip), vehicle: saline with Tween-80 96 % of control | endpoint: mean survival time, dose: 50.0 mg/kg/injection, schedule: Q04DX002 (ip), vehicle: saline with Tween-80 100 % of control | [17] 92 % of control

CCN(CC)C1=CC(=O)c2ccccc2C1=O
inactive: [15] 102 % of control | [16] 96 % of control | [6] 103 % of control

O=C(O)c1cccc2ccc(F)cc12
inactive: endpoint: median survival time, dose: 50.0 mg/kg/injection, schedule: Q04DX002 (ip), vehicle: saline with Tween-80 100 % of control | endpoint: median survival time, dose: 100.0 mg/kg/injection, schedule: Q04DX002 (ip), vehicle: saline with Tween-80 100 % of control | endpoint: median survival time, dose: 200.0 mg/kg/injection, schedule: Q04DX002 (ip), vehicle: saline with Tween-80 100 % of control | endpoint: median survival time, dose: 400.0 mg/kg/injection, schedule: Q04DX002 (ip), vehicle: saline with Tween-80 88 % of control

CNS(=O)(=O)Cc1ccccc1
inactive: [6] 91 % of control | [7] 97 % of control | [8] 94 % of control

CC(=O)OC(C)(C)/C=C/C(=O)[C@](C)(O)[C@H]1[C@H](O)C[C@@]2(C)[C@@H]3CC=C4[C@@H](CC[C@H](O)C4(C)C)[C@]3(CO)C(=O)C[C@]12C
inactive: endpoint: mean survival time, dose: 0.6 mg/kg/injection, schedule: Q01DX009 (ip), vehicle: saline with Tween-80 105 % of control | endpoint: mean survival time, dose: 0.63 mg/kg/injection, schedule: Q04DX003 (ip), vehicle: saline with Tween-80 105 % of control | endpoint: mean survival time, dose: 1.2 mg/kg/injection, schedule: Q01DX009 (ip), vehicle: saline with Tween-80 105 % of control | endpoint: mean survival time, dose: 1.25 mg/kg/injection, schedule: Q04DX003 (ip), vehicle: saline with Tween-80 112 % of control | endpoint: mean survival time, dose: 2.4 mg/kg/injection, schedule: Q01DX009 (ip), vehicle: saline with Tween-80 107 % of control | endpoint: mean survival time, dose: 2.5 mg/kg/injection, schedule: Q04DX003 (ip), vehicle: saline with Tween-80 114 % of control

C=CCC(Cl)(C(=O)OC)C(=O)OC
inactive: [13] 108 % of control | [18] 108 % of control | [14] 106 % of control

Cc1ccccc1NC(=O)c1ccccc1
inactive: [13] 97 % of control | [18] 100 % of control | [14] 91 % of control

O=S(=O)(OCC1CC2CCC1CC2)c1ccc(Br)cc1 (stereo not drawn)
inactive: [13] 96 % of control | [6] 95 % of control | [18] 112 % of control | [7] 97 % of control | [14] 102 % of control | [8] 95 % of control

NNC(=O)c1ccc(Cl)cc1Cl
inactive: endpoint: mean survival time, dose: 6.25 mg/kg/injection, schedule: Q04DX003 (ip), vehicle: saline with Tween-80 97 % of control | endpoint: mean survival time, dose: 12.5 mg/kg/injection, schedule: Q04DX003 (ip), vehicle: saline with Tween-80 101 % of control | [15] 103 % of control

CC12CCC(=O)C(I)(I)C1=CCCC2=O (stereo not drawn)
inactive: [19] 91 % of control | [13] 88 % of control | [18] 88 % of control | [14] 87 % of control

CCOC(CNc1ccc([N+](=O)[O-])cc1)OCC
inactive: [19] 95 % of control and 100 % of control | [13] 100 % of control and 106 % of control | [17] 100 % of control | [6] 94 % of control | endpoint: mean survival time, dose: 200.0 mg/kg/injection, schedule: Q01DX001 (ip), vehicle: saline with Tween-80 92 % of control and 97 % of control | [18] 100 % of control and 102 % of control | endpoint: mean survival time, dose: 200.0 mg/kg/injection, schedule: Q04DX002 (ip), vehicle: saline with Tween-80 98 % of control | [7] 104 % of control | endpoint: mean survival time, dose: 400.0 mg/kg/injection, schedule: Q01DX001 (ip), vehicle: saline with Tween-80 101 % of control and 103 % of control | [14] 120 % of control and 111 % of control | endpoint: mean survival time, dose: 400.0 mg/kg/injection, schedule: Q04DX002 (ip), vehicle: saline with Tween-80 100 % of control | [8] 96 % of control

COC(=O)CSC(=S)N(C)C
inactive: [6] 98 % of control | [7] 100 % of control | [8] 90 % of control

Clc1c(Cl)c(CBr)c(Cl)c(-c2c(Cl)c(Cl)c(Cl)c(CBr)c2Cl)c1Cl
inactive: [6] 93 % of control | [7] 107 % of control | [8] 104 % of control

C#CC[N+](CC)(CC)CCNC(=O)CCCCCCCCCCCCCCC
inactive: endpoint: mean survival time, dose: 75.0 mg/kg/injection, schedule: Q01DX001 (ip), vehicle: saline 102 % of control
